Results on one molecule are retold here after article PMC6934184, “Selective DNA-PKcs inhibition extends the therapeutic index of localized radiotherapy and chemotherapy” (The Journal of Clinical Investigation, 2019).

The target in this assay is T1, PAK2 (PAK65) (Homo sapiens, UniProt Q13177).
T1 construct: purchased Thermo Fisher Scientific (Life Technologies) SelectScreen
Put plainly: SelectScreen Z'LYTE. Format: biochemical. In short, it runs like this: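 SelectScreen broad panel; activity (Z'LYTE, Adapta) plus binding formats. ATP: Km app for CSF1R Z'LYTE; 10 for CAMK1 Adapta. Readout = % per kinase.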

T1 sequence (Q13177 whole entry): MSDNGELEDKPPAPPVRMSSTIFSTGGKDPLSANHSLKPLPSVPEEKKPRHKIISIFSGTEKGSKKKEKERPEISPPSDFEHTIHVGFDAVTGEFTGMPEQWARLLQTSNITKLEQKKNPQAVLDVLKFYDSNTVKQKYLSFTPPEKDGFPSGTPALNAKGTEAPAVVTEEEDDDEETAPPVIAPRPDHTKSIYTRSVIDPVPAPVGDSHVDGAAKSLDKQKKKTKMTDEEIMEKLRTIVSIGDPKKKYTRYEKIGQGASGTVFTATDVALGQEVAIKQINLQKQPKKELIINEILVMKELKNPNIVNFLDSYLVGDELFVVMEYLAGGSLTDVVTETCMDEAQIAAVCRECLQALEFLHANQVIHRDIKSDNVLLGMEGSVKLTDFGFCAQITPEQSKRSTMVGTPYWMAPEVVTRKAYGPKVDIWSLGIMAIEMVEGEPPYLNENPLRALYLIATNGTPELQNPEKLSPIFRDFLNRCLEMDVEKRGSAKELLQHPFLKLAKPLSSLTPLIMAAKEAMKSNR

The molecule `CN(C(=O)CN1CCOCC1)c1ccc2sc3c(-c4cccc5c(=O)cc(N6CC7CCC(C6)O7)oc45)cccc3c2c1` [NU5455] displayed an inhibition at 1 µM of 4%.

For orientation: inhibition means the change of the read-out against control, counted positive when it falls. Low readings indicate little suppression, high ones strong suppression.
